Laboratory results as given in ChEMBL document CHEMBL4819089, “Magnolol, a natural aldehyde dehydrogenase-2 agonist, inhibits the proliferation and collagen synthesis of cardiac fibroblasts” (Bioorg Med Chem Lett, 2021).
Active and inactive are the calls of the source. No cut-off for these calls is given here.

Key:
Cardiac fibroblast [1] = test: Anti-myocardial fibrosis activity against cardiac fibroblasts (unknown origin) assessed as inhibition of cell viability measured after 24 hrs in presence of ALDH2 inhibitor, daidzin by MTT assay; type: functional, tissue-based
Cardiac fibroblast [2] = test: Anti-myocardial fibrosis activity against cardiac fibroblasts (unknown origin) assessed as inhibition of cell viability measured after 24 hrs by MTT assay; type: functional, tissue-based; settings: dose 5-20 µM
Cardiac fibroblast [3] = test: Anti-myocardial fibrosis activity against cardiac fibroblasts (unknown origin) assessed as reduction in collagen synthesis by measuring reduction in type1 collagen protein expression measured after 24 hrs by western blot analysis; type: functional, tissue-based; settings: dose 5-20 µM
Cardiac fibroblast [4] = test: Effect on ALDH2 expression in cardiac fibroblasts (unknown origin) at 5 to 20 uM measured after 24 hrs by western blot analysis; type: functional, tissue-based; settings: dose 5-20 µM
Cardiac fibroblast [5] = test: Anti-myocardial fibrosis activity against cardiac fibroblasts (unknown origin) assessed as reduction in CDK4 protein expression measured after 24 hrs in presence of ALDH2 inhibitor, daidzin by western blot analysis; type: functional, tissue-based
Cardiac fibroblast [6] = test: Effect on Bax protein expression in cardiac fibroblasts (unknown origin) measured after 24 hrs in presence of ALDH2 inhibitor, daidzin by western blot analysis; type: functional, tissue-based
Cardiac fibroblast [7] = test: Effect on Bcl2 protein expression in cardiac fibroblasts (unknown origin) measured after 24 hrs in presence of ALDH2 inhibitor, daidzin by western blot analysis; type: functional, tissue-based
Cardiac fibroblast [8] = test: Anti-myocardial fibrosis activity against cardiac fibroblasts (unknown origin) assessed as inhibition of cell proliferation measured after 24 hrs by EdU incorporation based assay; type: functional, tissue-based; settings: dose 5-20 µM
Cardiac fibroblast [9] = test: Anti-myocardial fibrosis activity against cardiac fibroblasts (unknown origin) assessed as inhibition of cell viability at 20 uM measured for 120 hrs by MTT assay; type: functional, tissue-based
Cardiac fibroblast [10] = test: Effect on Bax protein expression in cardiac fibroblasts (unknown origin) at 5 to 20 uM incubated for 24 hrs by western blot analysis; type: functional, tissue-based; settings: dose 5-20 µM
Cardiac fibroblast [11] = test: Anti-myocardial fibrosis activity against cardiac fibroblasts (unknown origin) assessed as reduction in collagen synthesis by measuring reduction in type3 collagen protein expression measured after 24 hrs in presence of ALDH2 inhibitor, daidzin by western blot analysis; type: functional, tissue-based
Cardiac fibroblast [12] = test: Anti-myocardial fibrosis activity against cardiac fibroblasts (unknown origin) assessed as reduction in collagen synthesis by measuring reduction in type1 collagen protein expression measured after 24 hrs in presence of ALDH2 inhibitor, daidzin by western blot analysis; type: functional, tissue-based
[13] = target: T1, Aldehyde dehydrogenase, mitochondrial (Homo sapiens) (UniProt P05091); test: (§1) Agonist activity at human recombinant ALDH2 measured after 1 hr; settings: filed as agonist
T1 sequence (whole entry): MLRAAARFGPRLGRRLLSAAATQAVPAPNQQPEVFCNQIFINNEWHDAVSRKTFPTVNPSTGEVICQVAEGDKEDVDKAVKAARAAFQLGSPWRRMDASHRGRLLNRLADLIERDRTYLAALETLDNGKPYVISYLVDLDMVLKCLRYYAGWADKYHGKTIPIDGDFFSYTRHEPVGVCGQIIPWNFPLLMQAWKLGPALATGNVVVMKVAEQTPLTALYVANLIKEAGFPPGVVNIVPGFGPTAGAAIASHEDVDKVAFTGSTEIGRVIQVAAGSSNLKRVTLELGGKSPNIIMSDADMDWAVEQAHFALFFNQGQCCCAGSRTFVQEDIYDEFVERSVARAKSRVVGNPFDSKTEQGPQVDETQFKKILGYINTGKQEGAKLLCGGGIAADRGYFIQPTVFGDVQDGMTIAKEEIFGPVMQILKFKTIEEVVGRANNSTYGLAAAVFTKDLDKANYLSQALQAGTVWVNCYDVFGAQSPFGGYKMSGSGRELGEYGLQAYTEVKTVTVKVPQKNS

[14] = target: T2, Aldehyde dehydrogenase, mitochondrial (Homo sapiens, UniProt P05091); test: as §1
T2 sequence (P05091 whole entry): T1 sequence (whole entry)

[15] = target: T1, Aldehyde dehydrogenase, mitochondrial (Homo sapiens); test: Binding affinity to ALDH2 (unknown origin) by surface plasmon resonance analysis; settings: filed as agonist
Cardiac fibroblast [16] = test: Anti-myocardial fibrosis activity against cardiac fibroblasts (unknown origin) assessed as reduction in cyclinD1 protein expression measured after 24 hrs by western blot analysis; type: functional, tissue-based; settings: dose 5-20 µM
Cardiac fibroblast [17] = test: Anti-myocardial fibrosis activity against cardiac fibroblasts (unknown origin) assessed as reduction in collagen synthesis by measuring reduction in type3 collagen protein expression measured after 24 hrs by western blot analysis; type: functional; settings: dose 5-20 µM
Cardiac fibroblast [18] = test: Anti-myocardial fibrosis activity against cardiac fibroblasts (unknown origin) assessed as inhibition of cell proliferation measured after 24 hrs in presence of ALDH2 inhibitor, daidzin by EdU incorporation based analysis; type: functional, tissue-based
Cardiac fibroblast [19] = test: Anti-myocardial fibrosis activity against cardiac fibroblasts (unknown origin) assessed as reduction in CDK4 protein expression measured after 24 hrs by western blot analysis; type: functional, tissue-based; settings: dose 5-20 µM
Cardiac fibroblast [20] = test: Anti-myocardial fibrosis activity against cardiac fibroblasts (unknown origin) assessed as reduction in cyclinD1 protein expression measured after 24 hrs in presence of ALDH2 inhibitor, daidzin by western blot analysis; type: functional, tissue-based
[21] = target: T1, Aldehyde dehydrogenase, mitochondrial (Homo sapiens); test: Agonist activity at ALDH2 in cardiac fibroblasts (unknown origin) measured after 24 hrs by ELISA; type: tissue-based; settings: Cardiac fibroblast, filed as agonist, dose 5-20 µM
Cardiac fibroblast [22] = test: Effect on Bcl2 protein expression in cardiac fibroblasts (unknown origin) at 5 to 20 uM incubated for 24 hrs by western blot analysis; type: functional, tissue-based; settings: dose 5-20 µM
Cardiac fibroblast [23] = test: Anti-myocardial fibrosis activity against cardiac fibroblasts (unknown origin) assessed as inhibition of cell viability at 30 uM measured after 24 hrs by MTT assay; type: functional, tissue-based
Cardiac fibroblast [24] = test: Anti-myocardial fibrosis activity against cardiac fibroblasts (unknown origin) assessed as reduction in collagen synthesis by measuring reduction in type1 collagen protein expression at 30 uM measured after 24 hrs by western blot analysis; type: functional
Cardiac fibroblast [25] = test: Anti-myocardial fibrosis activity against cardiac fibroblasts (unknown origin) assessed as reduction in collagen synthesis by measuring reduction in type3 collagen protein expression at 30 uM measured after 24 hrs by western blot analysis; type: functional
Cardiac fibroblast [26] = test: Anti-myocardial fibrosis activity against cardiac fibroblasts (unknown origin) assessed as reduction in cyclinD1 protein expression at 30 uM measured after 24 hrs by western blot analysis; type: functional, tissue-based
Cardiac fibroblast [27] = test: Anti-myocardial fibrosis activity against cardiac fibroblasts (unknown origin) assessed as reduction in CDK4 protein expression at 30 uM measured after 24 hrs by western blot analysis; type: functional, tissue-based
Cardiac fibroblast [28] = test: Anti-myocardial fibrosis activity against cardiac fibroblasts (unknown origin) assessed as inhibition of cell proliferation at 30 uM measured after 24 hrs by EdU incorporation based assay; type: functional, tissue-based

## C=CCc1ccc(O)c(-c2cc(CC=C)ccc2O)c1 [MAGNOLOL]
Cardiac fibroblast [1]
  Activity: inactive
Cardiac fibroblast [2]
  Activity: Dose-Dependent Effect
Cardiac fibroblast [3]
  Activity: Dose-Dependent Effect
Cardiac fibroblast [4]
  Activity: inactive
Cardiac fibroblast [5]
  Activity: inactive
Cardiac fibroblast [6]
  Activity: inactive
Cardiac fibroblast [7]
  Activity: inactive
Cardiac fibroblast [8]
  Activity: Dose-Dependent Effect
Cardiac fibroblast [9]
  Activity: Active
Cardiac fibroblast [10]
  Activity: inactive
Cardiac fibroblast [11]
  Activity: inactive
Cardiac fibroblast [12]
  Activity: inactive
[13]
  Activity: Dose-Dependent Effect
[14]
  EC50: 57.9 µM
[15]
  Activity: 7.07 10^-6M
Cardiac fibroblast [16]
  Activity: Dose-Dependent Effect
Cardiac fibroblast [17]
  Activity: Dose-Dependent Effect
Cardiac fibroblast [18]
  Activity: inactive
Cardiac fibroblast [19]
  Activity: Dose-Dependent Effect
Cardiac fibroblast [20]
  Activity: inactive
[21]
  Activity: Dose-Dependent Effect
Cardiac fibroblast [22]
  Activity: inactive

## O=C(NCc1ccc2c(c1)OCO2)c1c(Cl)cccc1Cl
Cardiac fibroblast [23]
  Activity: Active
Cardiac fibroblast [24]
  Activity: Active
Cardiac fibroblast [25]
  Activity: Active
Cardiac fibroblast [26]
  Activity: Active
Cardiac fibroblast [27]
  Activity: Active
Cardiac fibroblast [28]
  Activity: Active
